# Test results taken from US10555987B2, “GHRH agonists for the treatment of ischemic disorders” (UNIVERSITY OF MIAMI, priority 2012, dated 2020).
# pIC50: −log10 of the molar value. Where “and” joins values, the source holds several entries; their conditions need not be identical. Identical values can stand only once. Marks after values point to notes of the source that are not given here. Non-standard residues stand in square brackets, D forms with d. Residues, ends and D or L forms follow the SMILES beside them. *: point of attachment. Desaminotyrosyl = O=C(CCc1ccc(O)cc1)*; NMeY = CN[C@@H](Cc1ccc(O)cc1)C(=O)O; Agmatine = N=C(N)NCCCCN*; Nle = CCCC[C@H](N)C(=O)O; Orn = NCCC[C@H](N)C(=O)O; Abu = CC[C@H](N)C(=O)O
# Legend:
# [1] = test system: GH release; assay: GH releasing potency in vivo, subcutaneous administration (Example 14, Table 12); set-up: species or system rat; settings: for Serum GH level at selected time after injection (ng/ml), 0 min / Serum GH level at selected time after injection (ng/ml), 15 min / Serum GH level at selected time after injection (ng/ml), 30 min: male rats, dose 3 μg/kg, mean ± SEM
# How it was run: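 Potency is expressed relative to GHRH(1-29)NH2 and JI-38 (each = 1), via equivalent GHRH(1-29)NH2 dose read from a standard curve. Peptides in 5% mannitol given i.v. or s.c. to anaesthetised male Sprague-Dawley rats (200-250 g); serum GH measured by ELISA at selected times.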
# [2] = target: T1, GHRH receptor (Homo sapiens, UniProt Q02643); assay: GHRH receptor binding, competition with 125I-labeled JV-1-42, human pituitary membrane homogenates (Table 5); set-up: Normal human pituitaries were purchased from the National Hormone and Peptide Program; tissue National Hormone and Peptide Program (A.F. Parlow, Harbor-UCLA Medical Center, Torrance, Calif.); host or cells: normal human pituitary, membrane fraction; settings: for Relative affinity (Binding potency) vs GHRH: GHRH(1-29) = 1, Table 5; for Relative affinity (Binding potency) vs JI-38: JI-38 = 1, Table 5
# T1 sequence (Q02643 23-423): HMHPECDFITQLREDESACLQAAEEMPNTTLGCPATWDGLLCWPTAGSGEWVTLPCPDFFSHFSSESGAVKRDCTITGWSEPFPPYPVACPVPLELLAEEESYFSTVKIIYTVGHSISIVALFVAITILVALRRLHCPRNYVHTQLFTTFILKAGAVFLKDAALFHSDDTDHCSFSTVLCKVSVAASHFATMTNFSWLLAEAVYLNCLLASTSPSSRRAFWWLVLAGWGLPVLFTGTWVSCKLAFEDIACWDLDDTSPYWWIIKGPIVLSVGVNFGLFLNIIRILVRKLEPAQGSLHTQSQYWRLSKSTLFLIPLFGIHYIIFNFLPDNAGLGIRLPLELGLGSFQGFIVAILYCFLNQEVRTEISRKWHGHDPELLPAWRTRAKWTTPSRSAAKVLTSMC
# Description: Normal human pituitaries were purchased from the National Hormone and Peptide Program (A.F. Parlow, Los Angeles, County Harbor-UCLA Medical Center, Torrance, Calif.). Briefly, in competitive binding analysis, ^125I-labeled JV-1-42 ([…]) was displaced by GHRH agonists at 10^−6 to 10^−12 M.
# The final binding affinities were expressed as IC50 values and were calculated by using the LIGAND PC computerized curve-fitting program of Munson and Rodbard as modified by McPherson.
# [3] = test system: myocardial infarction (Fisher-344 rats); assay: Hemodynamic analysis (pressure-volume loops), body and heart weight after MI, compared to JI-38 (Example 15, Table 16); type: in vivo, rat; set-up: key to ESP (End-Systolic Pressure) / EDP (End-Diastolic Pressure) / ESV (End-Systolic Volume) / PRSW (Preload Recruitable Stroke Work) / Ees (End-systolic Elastance) / dP/dt max (peak rate of the pressure rise) / dP/dt max_EDV / dP/dt min / TAU (relaxation time constant calculated by Weiss method) / SV (Stroke Volume) / CO (Cardiac Output) / SW (Stroke Work) / EF / Ea/Ees / Ea (arterial Elastance): ↓: downward arrow denotes lower than JI-38; ↑: upward arrow denotes greater than JI-38; =denotes same as JI-38; ⬇⬇: double arrow denotes greater effect; ⬆⬆: double arrow denotes greater effect; settings: for CO (Cardiac Output) / EDP (End-Diastolic Pressure) / EF / ESP (End-Systolic Pressure) / ESV (End-Systolic Volume) / Ea (arterial Elastance) / Ea/Ees / Ees (End-systolic Elastance) / PRSW (Preload Recruitable Stroke Work) / SV (Stroke Volume) / SW (Stroke Work) / TAU (relaxation time constant calculated by Weiss method) / dP/dt max (peak rate of the pressure rise) / dP/dt max_EDV / dP/dt min: rat MI model, s.c. twice daily, pressure-volume loops, expressed in comparison to JI-38
# How it was run: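 Female 6-month-old Fisher-344 rats after permanent left coronary ligation received GHRH agonists subcutaneously twice daily from 2 h post-surgery (n=10/group). Under ketamine/xylazine/acepromazine anesthesia, LV pressure-volume loops were recorded via carotid micromanometer catheter, calibrated by hypertonic saline bolus and cuvette method; echocardiography also serial.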
structure (smiles),measurement,setting,value
"CCCC[C@H](NC(=O)[C@@H](NC(=O)[C@H](CC(=O)O)NC(=O)[C@H](CCC(N)=O)NC(=O)[C@H](CC(C)C)NC(=O)[C@H](CC(C)C)NC(=O)[C@H](CCCN)NC(=O)[C@H](CCCNC(=N)N)NC(=O)[C@H](C)NC(=O)[C@H](CO)NC(=O)[C@H](CC(C)C)NC(=O)[C@H](CCC(N)=O)NC(=O)[C@H](CC)NC(=O)[C@H](CC(C)C)NC(=O)[C@@H](NC(=O)[C@H](CCCN)NC(=O)[C@H](CCCNC(=N)N)NC(=O)[C@H](Cc1ccc(O)cc1)NC(=O)[C@H](CO)NC(=O)[C@H](CCC(N)=O)NC(=O)[C@@H](NC(=O)[C@H](Cc1ccccc1)NC(=O)[C@@H](NC(=O)[C@H](C)NC(=O)[C@H](CC(=O)O)NC(=O)[C@H](C)NC(=O)CCc1ccc(O)cc1)[C@@H](C)CC)[C@@H](C)O)C(C)C)[C@@H](C)CC)C(=O)N[C@@H](CC(=O)O)C(=O)NCCCCNC(=N)N [JI-38, [Dat^1, Gln^8, Orn^12,21, Abu^15, Nle^27, Asp^28, Agm^29]hGHRH(1-29)NH2, reference compound] (Desaminotyrosyl-ADAIFTQSYR[Orn]VL[Abu]QLSAR[Orn]LLQDI[Nle]D-Agmatine)","Serum GH level at selected time after injection (ng/ml), 0 min",[1]; s.c.,33.2 ± 2.8 ng/mL
same,"Serum GH level at selected time after injection (ng/ml), 15 min",[1]; s.c.,230.0 ± 15.1 ng/mL
same,"Serum GH level at selected time after injection (ng/ml), 30 min",[1]; s.c.,128.7 ± 13.3 ng/mL
same,"Relative potency compared to GHRH(1-29), 15 min",[1]; s.c.,63.1
same,"Relative potency compared to JI-38, 15 min",[1]; s.c.,1.00
same,"Relative potency compared to GHRH(1-29), 30 min",[1]; s.c.,111.8
same,"Relative potency compared to JI-38, 30 min",[1]; s.c.,1.00
same,pIC50,"[2]; 125I-JV-1-42, human pituitary membranes, Table 5",8.77
same,Relative affinity (Binding potency) vs GHRH,[2],2.4
same,Relative affinity (Binding potency) vs JI-38,[2],1
"CCCC[C@H](NC(=O)[C@@H](NC(=O)[C@H](CC(=O)O)NC(=O)[C@H](CCC(N)=O)NC(=O)[C@H](CC(C)C)NC(=O)[C@H](CC(C)C)NC(=O)[C@H](CCCN)NC(=O)[C@H](CCCNC(=N)N)NC(=O)[C@H](C)NC(=O)[C@H](CO)NC(=O)[C@H](CC(C)C)NC(=O)[C@H](CCC(N)=O)NC(=O)[C@H](CC)NC(=O)[C@H](CC(C)C)NC(=O)[C@@H](NC(=O)[C@H](CCCN)NC(=O)[C@H](CCCNC(=N)N)NC(=O)[C@H](Cc1ccc(O)cc1)NC(=O)[C@H](CO)NC(=O)[C@H](CCC(N)=O)NC(=O)[C@@H](NC(=O)[C@H](Cc1ccccc1)NC(=O)[C@@H](NC(=O)[C@H](C)NC(=O)[C@H](CC(=O)O)NC(=O)[C@H](C)NC(=O)[C@H](Cc1ccc(O)cc1)NC)[C@@H](C)CC)[C@@H](C)O)C(C)C)[C@@H](C)CC)C(=O)N[C@@H](CC(=O)O)C(=O)NCCCCNC(=N)N [Peptide P-20356, [N—Me-Tyr^1, Gln^8, Orn^12, Abu^15, Orn^21, Nle^27, Asp^28, Agm^29]hGHRH(1-29) NH2] (H-[NMeY]ADAIFTQSYR[Orn]VL[Abu]QLSAR[Orn]LLQDI[Nle]D-Agmatine)",potency as compared to JI-38 in both i.v. and s.c. tests,[1]; both i.v. and s.c. tests,increased potency as compared to JI-38
same,"Serum GH level at selected time after injection (ng/ml), 0 min",[1]; s.c.,25.3 ± 3.9 ng/mL
same,"Serum GH level at selected time after injection (ng/ml), 15 min",[1]; s.c.,305.4 ± 40.0 ng/mL
same,"Serum GH level at selected time after injection (ng/ml), 30 min",[1]; s.c.,152.4 ± 21.8 ng/mL
same,"Relative potency compared to GHRH(1-29), 15 min",[1]; s.c.,91.2
same,"Relative potency compared to JI-38, 15 min","[1]; s.c., listed as MR-356",1.4 and 1.45
same,"Relative potency compared to GHRH(1-29), 30 min",[1]; s.c.,150.9
same,"Relative potency compared to JI-38, 30 min","[1]; s.c., listed as MR-356",1.4 and 1.35
same,CO (Cardiac Output),[3],=
same,EDP (End-Diastolic Pressure),[3],=
same,EF,[3],=
same,ESP (End-Systolic Pressure),[3],=
same,ESV (End-Systolic Volume),[3],=
same,Ea (arterial Elastance),[3],↑
same,Ea/Ees,[3],=
same,Ees (End-systolic Elastance),[3],=
same,PRSW (Preload Recruitable Stroke Work),[3],=
same,SV (Stroke Volume),[3],=
same,SW (Stroke Work),[3],=
same,TAU (relaxation time constant calculated by Weiss method),[3],=
same,dP/dt max (peak rate of the pressure rise),[3],=
same,dP/dt max_EDV,[3],=
same,dP/dt min,[3],=
same,Relative affinity (Binding potency) vs GHRH,[2],406.0
same,Relative affinity (Binding potency) vs JI-38,[2],171
"CCCC[C@H](NC(=O)[C@@H](NC(=O)[C@H](CC(=O)O)NC(=O)[C@H](CCC(N)=O)NC(=O)[C@H](CC(C)C)NC(=O)[C@H](CC(C)C)NC(=O)[C@H](CCCN)NC(=O)[C@H](CCCNC(=N)N)NC(=O)[C@H](C)NC(=O)[C@H](CO)NC(=O)[C@H](CC(C)C)NC(=O)[C@H](CCC(N)=O)NC(=O)[C@H](CC)NC(=O)[C@H](CC(C)C)NC(=O)[C@@H](NC(=O)[C@H](CCCN)NC(=O)[C@H](CCCNC(=N)N)NC(=O)[C@H](Cc1ccc(O)cc1)NC(=O)[C@H](CO)NC(=O)[C@H](CC(N)=O)NC(=O)[C@@H](NC(=O)[C@H](Cc1ccccc1)NC(=O)[C@@H](NC(=O)[C@H](C)NC(=O)[C@H](CC(=O)O)NC(=O)[C@@H](C)NC(=O)[C@H](Cc1ccc(O)cc1)NC)[C@@H](C)CC)[C@@H](C)O)C(C)C)[C@@H](C)CC)C(=O)N[C@@H](CC(=O)O)C(=O)N[C@@H](CCCNC(=N)N)C(=O)NC [Peptide P-27409, [N—Me-Tyr^1, D-Ala^2, Orn^12, Abu^15, Orn^21, Nle^27, Asp^28]hGHRH(1-29)NH—CH3] (H-[NMeY][dA]DAIFTNSYR[Orn]VL[Abu]QLSAR[Orn]LLQDI[Nle]DR-NHMe)","Serum GH level at selected time after injection (ng/ml), 0 min",[1]; s.c.,18.9 ± 3.1 ng/mL
same,"Serum GH level at selected time after injection (ng/ml), 15 min",[1]; s.c.,427.4 ± 62.4 ng/mL
same,"Serum GH level at selected time after injection (ng/ml), 30 min",[1]; s.c.,256.7 ± 20.7 ng/mL
same,GH-releasing potency after s.c. administration (in words),[1]; s.c.,significantly higher potencies at 30 minutes than at 15 minutes
same,"Relative potency compared to GHRH(1-29), 15 min",[1]; s.c.,141.3
same,"Relative potency compared to JI-38, 15 min",[1]; s.c.,2.24*
same,"Relative potency compared to GHRH(1-29), 30 min",[1]; s.c.,380.6
same,"PRSW, index of contractility",[3]; after MI,markedly increased
same,CO (Cardiac Output),[3],⬆⬆
same,EDP (End-Diastolic Pressure),[3],↑
same,EF,[3],⬆⬆
same,ESP (End-Systolic Pressure),[3],↑
same,ESV (End-Systolic Volume),[3],=
same,Ea (arterial Elastance),[3],=
same,Ea/Ees,[3],↓
same,Ees (End-systolic Elastance),[3],⬆⬆
same,PRSW (Preload Recruitable Stroke Work),[3],⬆⬆
same,SV (Stroke Volume),[3],=
same,SW (Stroke Work),[3],=
same,TAU (relaxation time constant calculated by Weiss method),[3],=
same,dP/dt max (peak rate of the pressure rise),[3],⬆⬆
same,dP/dt max_EDV,[3],=
same,dP/dt min,[3],=
